Test results reported in ChEMBL document CHEMBL3885861, “Open TG-GATES”.

Species on record: Rattus norvegicus
Test: Open TG-GATES - Regimen: Single
Format: toxicity, organism-based, Sprague-Dawley
Design: regimen Single, gender Male, age 6 weeks
Details: in vivo, iv, route intravenous injection; for Eos / Fbg / Ht / Lym / MCH / MCHC / MCV / Mono / PT / Plat / RBC / Ret / Bas / Hb / Neu: tissue Blood; for KIDNEY_L / KIDNEY_R / KIDNEY_TOTAL: tissue Kidney; for LIVER: tissue Liver; for ALP / ALT / AST / CRE / DBIL / GLC / K / Na / RALB / TBIL / TC / TG / TP / gamma-GTP / LDH: tissue Plasma
[1] = 3 mg/kg, 3 h, dose level Middle
[2] = 3 mg/kg, 6 h, dose level Middle
[3] = 3 mg/kg, 9 h, dose level Middle
[4] = 3 mg/kg, 24 h, dose level Middle

With `COc1cccc2c1C(=O)c1c(O)c3c(c(O)c1C2=O)C[C@@](O)(C(=O)CO)C[C@@H]3O[C@H]1C[C@H](N)[C@H](O)[C@H](C)O1` [DOXORUBICIN] the Eos [1] was 0.6%, the Fbg [1] was 260.4 mg/dL and the Ht [1] was 38%. The Lym [1] was 78.6%, the MCH [1] was 21.6 pg and the MCHC [1] was 34.7%. For the same compound, the MCV [1] was 62.4 fL, the Mono [1] was 3.8% and the PT [1] was 16.2 s. The Plat [1] was 113.3 x10_4/uL, the RBC [1] was 609.6 x10_4/ul and the Ret [1] was 6.7%. The KIDNEY_L [1] was 0.9 g, the KIDNEY_R [1] was 0.9 g and the KIDNEY_TOTAL [1] was 1.8 g. For the same compound, the LIVER [1] was 9.4 g, the ALP [1] was 1266.2 IU/L and the ALT [1] was 43.2 IU/L. The AST [1] was 80.2 IU/L, the CRE [1] was 0.2 mg/dL and the DBIL [1] was 0.002 mg/dL. The GLC [1] was 174.2 mg/dL, the K [1] was 4.1 meq/L and the Na [1] was 141.2 meq/L. The RALB [1] was 3 g/dL, the TBIL [1] was 0.022 mg/dL and the TC [1] was 65.6 mg/dL. For the same compound, the TG [1] was 99.4 mg/dL, the TP [1] was 5.1 g/dL and the gamma-GTP [1] was 1 IU/L. The TERMINAL_BW [2] was 208.1 g, the Bas [2] was 0% and the Eos [2] was 0.8%. It also gave a Fbg [2] of 294 mg/dL, a Ht [2] of 37.7% and a Lym [2] of 79%. For the same compound, the MCH [2] was 21.7 pg, the MCHC [2] was 34.3% and the MCV [2] was 63.3 fL. The Mono [2] was 4.2%, the PT [2] was 16 s and the Plat [2] was 130.3 x10_4/uL. The RBC [2] was 595.4 x10_4/ul, the Ret [2] was 7% and the KIDNEY_L [2] was 0.9 g. The KIDNEY_R [2] was 0.9 g, the KIDNEY_TOTAL [2] was 1.8 g and the LIVER [2] was 8.4 g. For the same compound, the ALP [2] was 1404.2 IU/L, the AST [2] was 77.2 IU/L and the CRE [2] was 0.1 mg/dL. It also gave a DBIL [2] of 0.002 mg/dL, a GLC [2] of 177 mg/dL and a K [2] of 4 meq/L. For the same compound, the LDH [2] was 128.2 IU/L, the Na [2] was 140.6 meq/L and the RALB [2] was 2.9 g/dL. It also gave a TBIL [2] of 0.032 mg/dL, a TC [2] of 73.2 mg/dL and a TG [2] of 59.6 mg/dL. For the same compound, the TP [2] was 5.1 g/dL, the gamma-GTP [2] was 1.8 IU/L and the TERMINAL_BW [3] was 210 g. For the same compound, the Bas [3] was 0%, the Eos [3] was 0.6% and the Fbg [3] was 280.6 mg/dL. It also gave a Hb [3] of 13 g/dL, a Ht [3] of 38.2% and a Lym [3] of 76%. For the same compound, the MCH [3] was 21.1 pg, the MCHC [3] was 34.2% and the MCV [3] was 61.8 fL. For the same compound, the Mono [3] was 4.2%, the Neu [3] was 18% and the PT [3] was 15.8 s. The Plat [3] was 117 x10_4/uL, the RBC [3] was 617.6 x10_4/ul and the Ret [3] was 6.9%. For the same compound, the KIDNEY_L [3] was 0.9 g, the KIDNEY_R [3] was 0.9 g and the KIDNEY_TOTAL [3] was 1.8 g. For the same compound, the LIVER [3] was 8.1 g, the ALP [3] was 1233.4 IU/L and the ALT [3] was 33.2 IU/L. The AST [3] was 69.2 IU/L, the CRE [3] was 0.1 mg/dL and the DBIL [3] was 0 mg/dL. The GLC [3] was 186.8 mg/dL, the K [3] was 4.3 meq/L and the Na [3] was 140.6 meq/L. It also gave an RALB [3] of 2.8 g/dL, a TBIL [3] of 0.018 mg/dL and a TC [3] of 71 mg/dL. It also gave a TG [3] of 70.2 mg/dL, a TP [3] of 5.1 g/dL and a gamma-GTP [3] of 1.2 IU/L. The TERMINAL_BW [4] was 215.4 g, the Bas [4] was 0% and the Eos [4] was 0.2%. It also gave a Fbg [4] of 277.8 mg/dL, a Hb [4] of 13.4 g/dL and a Ht [4] of 37.4%. It also gave a Lym [4] of 80.8%, an MCH [4] of 21.6 pg and an MCHC [4] of 35.7%. For the same compound, the MCV [4] was 60.4 fL, the Mono [4] was 4% and the Neu [4] was 13.2%. It also gave a PT [4] of 16.6 s, a Plat [4] of 118.9 x10_4/uL and an RBC [4] of 620 x10_4/ul. For the same compound, the Ret [4] was 4.5%, the KIDNEY_L [4] was 0.9 g and the KIDNEY_R [4] was 0.9 g. It also gave a KIDNEY_TOTAL [4] of 1.9 g, an ALP [4] of 1504.4 IU/L and an AST [4] of 68.2 IU/L. For the same compound, the CRE [4] was 0.2 mg/dL, the DBIL [4] was 0.002 mg/dL and the GLC [4] was 191.4 mg/dL. The K [4] was 4.5 meq/L, the LDH [4] was 124.6 IU/L and the Na [4] was 143 meq/L. The RALB [4] was 3 g/dL, the TBIL [4] was 0.018 mg/dL and the TC [4] was 75 mg/dL. The TG [4] was 88.6 mg/dL, the TP [4] was 5.2 g/dL and the gamma-GTP [4] was 1 IU/L. The TERMINAL_BW (10 mg/kg, 3 h, dose level High) was 211.4 g and the Bas (10 mg/kg, 3 h, dose level High) was 0%.
